Patent US11236077B2, “Fruquintinib eutectic crystal, preparation method therefor, composition, and uses thereof” (Hangzhou SoliPharma Co., Ltd., priority 2018, dated 2022)
Converted amounts (≈) assume the structure as drawn.

How the values were obtained:
Format in all cases: physicochemical
Solubility in water [1] = conditions: for solubility in 25° C. water compared with known fruquintinib Form I: Comparative Example 1, result in words; for solubility at 1 min: deionized water, 25 °C, water, thermodynamic from solid; for solubility at 1 min / Solubility in Water: 10 mg in 10 ml deionized water, ultrasound 1 min, filtration, HPLC; for Solubility in Water: 25° C.
Experimental: High performance liquid chromatography (HPLC) data were collected on Ultimate 3000 and the concentration was tested with the external standard method. […] The specific operation steps: respectively took 10 mg of each of the above samples and put them into a 20 ml glass bottle respectively, added 10 ml deionized water, placed the solution at 25° C. ultrasound for 1 min, then took the samples for filtration and analyzed their concentrations using HPLC; calculated their solubility in water respectively.

[2] = Crystal slurry experiment in water (crystalline form stability); conditions: Comparative Example 2, result in words
Experimental: X-ray powder diffraction (XRPD): performed on Bruker D8 Advance diffractometer. Samples were tested at room temperature. Testing conditions: 2θ scan range 3 to 40°, step size 0.02° and speed 0.2 s/step. […] The specific operation steps: respectively took 10 mg of each of the above samples and put them into a 5 ml glass bottle respectively, added 2 ml deionized water, stirred the solution at room temperature for 24 hours, then took the samples for filtration; and analyzed their crystalline forms with XRD.

[3] = Storage stability in desiccators at room temperature and RH 10% to 90%; conditions: room temperature, 4 months
Solubility in water [4] = conditions: background statement, conditions not given

Structure (SMILES)	solubility in 25° C. water compared with known fruquintinib Form I (Solubility in water [1])	solubility at 1 min (Solubility in water [1]) [µg/mL]	crystalline form after having been stirred in water for 24 hours [2]	appearance, XRPD and melting point after storage [3]	Solubility in Water (Solubility in water [1]; listed as Crystalline Form of Compound A of the present invention) [µg/mL]	Solubility in Water (Solubility in water [1]) [µg/mL]	solubility in water (inventors' finding) (Solubility in water [4])
CNC(=O)c1c(C)oc2cc(Oc3ncnc4cc(OC)c(OC)cc34)ccc12.O=C(O)CC(=O)O	higher	12	kept its form unchanged	unchanged			
CNC(=O)c1c(C)oc2cc(Oc3ncnc4cc(OC)c(OC)cc34)ccc12.O=C(O)/C=C\C(=O)O	higher	9.4	kept its form unchanged	unchanged			
CNC(=O)c1c(C)oc2cc(Oc3ncnc4cc(OC)c(OC)cc34)ccc12 [Compound A]	higher		kept its form unchanged	unchanged	9.9 (≈ 25.2 µM)		
CNC(=O)c1c(C)oc2cc(Oc3ncnc4cc(OC)c(OC)cc34)ccc12 [Known fruquintinib Crystalline Form I, 6-(6,7-dimethoxyquinazoline-4-oxy)-N,2-dimethyl benzofuran-3-formamide, reference compound]						2.2 (≈ 5.59 µM)	poor
CNC(=O)c1c(C)oc2cc(Oc3ncnc4cc(OC)c(OC)cc34)ccc12 [Known fruquintinib Crystalline Form VII, 6-(6,7-dimethoxyquinazoline-4-oxy)-N,2-dimethyl benzofuran-3-formamide, reference compound]						2.6 (≈ 6.61 µM)	
CNC(=O)c1c(C)oc2cc(Oc3ncnc4cc(OC)c(OC)cc34)ccc12 [Known fruquintinib Crystalline Form III, 6-(6,7-dimethoxyquinazoline-4-oxy)-N,2-dimethyl benzofuran-3-formamide, reference compound]						2.1 (≈ 5.34 µM)	
